Measurements from patent US9603845B2, “Prophylactic agent and/or therapeutic agent for stress urinary incontinence” (priority 2012, dated 2017).
Marks after values point to notes of the source that are not given here.

Assays:
[1] = system: female SD rats; experiment: Leak point pressure (LPP) of a rat: intravesical pressure when urinary leakage occurs; assay type: in vivo; conditions: 3 mg/kg intravenous, 5 minutes after administration; for Leak point pressure (LPP): urethane-anesthetized, spinal cord-transected female SD rats, average ± standard error, physiological saline 24.6±0.6
[2] = system: stress urinary incontinence model rats; conditions: rat, in vivo

SMILES	LPP compared with the physiological saline group (in words) [1]	Leak point pressure (LPP) [1] [cmH2O]	Frequency of urinary incontinence, 30 minutes after administration [2]	Frequency of urinary incontinence, 2 hours after administration [2]	Number of rats that express urinary incontinence due to the electrical stimulus (in words) [2]	Frequency of urinary incontinence, before administration ([2]; po)
CCCOC(C(=O)OC1CCNCC1)(c1ccccc1)c1ccccc1 [the compound of the present invention, 4-piperidyl diphenylpropoxyacetate]	significantly higher	31.1±2.3	4	3*	significantly decreased	8
CCCOC(C(=O)OC1CCN(C)CC1)(c1ccccc1)c1ccccc1 [propiverine, α,α-diphenyl-α-n-propoxy acetic acid 1-methyl-4-piperidyl ester, reference compound]	no significant difference	24.9±1.9				
